In BindingDB's records for doi:10.1124/jpet.105.096792 (University of Tours, 2006) one finds Ki data, which are given here for two compounds.

For the assay, the target named is Sodium-dependent dopamine transporter (Rattus norvegicus, UniProt P23977).
Sodium-dependent dopamine transporter, sequence (P23977 whole entry): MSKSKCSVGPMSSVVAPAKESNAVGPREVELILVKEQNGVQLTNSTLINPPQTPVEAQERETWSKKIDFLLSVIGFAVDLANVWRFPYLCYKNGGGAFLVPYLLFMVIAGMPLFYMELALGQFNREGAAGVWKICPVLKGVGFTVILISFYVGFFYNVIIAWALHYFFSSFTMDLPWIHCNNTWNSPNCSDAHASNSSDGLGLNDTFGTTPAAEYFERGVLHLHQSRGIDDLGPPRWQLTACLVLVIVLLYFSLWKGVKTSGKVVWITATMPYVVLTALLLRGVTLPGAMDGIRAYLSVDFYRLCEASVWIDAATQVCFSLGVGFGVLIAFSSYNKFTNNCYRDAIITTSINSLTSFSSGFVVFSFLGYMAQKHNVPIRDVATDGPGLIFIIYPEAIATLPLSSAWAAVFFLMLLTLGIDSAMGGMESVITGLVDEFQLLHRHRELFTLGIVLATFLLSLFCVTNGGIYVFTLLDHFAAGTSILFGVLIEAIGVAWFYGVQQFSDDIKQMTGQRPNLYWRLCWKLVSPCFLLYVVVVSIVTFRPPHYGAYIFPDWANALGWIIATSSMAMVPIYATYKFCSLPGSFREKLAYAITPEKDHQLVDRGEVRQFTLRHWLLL

`COC(=O)[C@H]1[C@@H](c2ccc(C)cc2)C[C@@H]2CC[C@H]1N2C/C=C/I` showed a Ki of 18 nM.

For the compound `Cc1ccc(Sc2ccccc2CN(C)C)c(N)c1` [2-(2-Dimethylaminomethyl-phenylsulfanyl)-5-methyl-phenylamine], the affinity, expressed as Ki, was 1000 nM.
